Values after ≈ are worked out from the molar mass of the structure shown. Where two headings read alike, the source gives them in different places.
Assays:
[1] = molecular target: T1, HIPK3 (Homo sapiens, UniProt Q9H422); assay: Kinome profiler screen; type: biochemical; details: at 20,000 nM inhibitor; kinase activity remaining
T1 construct: purchased Millipore KinaseProfiler

[2] = molecular target: T2, PKCη (Homo sapiens, UniProt P24723); assay: Kinome profiler screen; type: biochemical; details: at 20,000 nM inhibitor; kinase activity remaining
T2 construct: purchased Millipore KinaseProfiler

[3] = molecular target: T3, Abl (Homo sapiens, UniProt P00519); assay: Kinome profiler screen; type: biochemical; details: at 20,000 nM inhibitor; kinase activity remaining
T3 construct: purchased Millipore KinaseProfiler

[4] = molecular target: T4, mTOR/FKBP12 (Homo sapiens, UniProt P42345); assay: Kinome profiler screen; type: biochemical; details: at 20,000 nM inhibitor; kinase activity remaining
T4 construct: purchased Millipore KinaseProfiler

[5] = molecular target: T5, MST2 (Homo sapiens, UniProt Q13188); assay: Kinome profiler screen; type: biochemical; details: at 20,000 nM inhibitor; kinase activity remaining
T5 construct: purchased Millipore KinaseProfiler

[6] = molecular target: T6, cKit (Homo sapiens, UniProt P10721); assay: Kinome profiler screen; type: biochemical; details: at 20,000 nM inhibitor; kinase activity remaining
T6 construct: purchased Millipore KinaseProfiler

[7] = molecular target: T7, CLK3 (Homo sapiens, UniProt P49761); assay: Kinome profiler screen; type: biochemical; details: at 20,000 nM inhibitor; kinase activity remaining
T7 construct: purchased Millipore KinaseProfiler

[8] = molecular target: T8, Yes (Homo sapiens, UniProt P07947); assay: Kinome profiler screen; type: biochemical; details: at 20,000 nM inhibitor; kinase activity remaining
T8 construct: purchased Millipore KinaseProfiler

[9] = molecular target: T9, PKCζ (Homo sapiens, UniProt Q05513); assay: Kinome profiler screen; type: biochemical; details: at 20,000 nM inhibitor; kinase activity remaining
T9 construct: purchased Millipore KinaseProfiler

[10] = molecular target: T10, FGFR1(V561M) (Homo sapiens, UniProt P11362, V561M); assay: Kinome profiler screen; type: biochemical; details: at 20,000 nM inhibitor; kinase activity remaining
T10 construct: purchased Millipore KinaseProfiler

[11] = molecular target: T11, PI3 Kinase (p110α/p85α) (Homo sapiens, UniProt P42336); assay: Kinome profiler screen; type: biochemical; details: at 20,000 nM inhibitor; kinase activity remaining
T11 construct: purchased Millipore KinaseProfiler

[12] = molecular target: T12, PI3 Kinase (p110β/p85α) (Homo sapiens, UniProt P42338); assay: Kinome profiler screen; type: biochemical; details: at 20,000 nM inhibitor; kinase activity remaining
T12 construct: purchased Millipore KinaseProfiler

[13] = molecular target: T13, Plk1 (Homo sapiens, UniProt P53350); assay: Kinome profiler screen; type: biochemical; details: at 20,000 nM inhibitor; kinase activity remaining
T13 construct: purchased Millipore KinaseProfiler

[14] = molecular target: T14, MSK2 (Homo sapiens, UniProt O75676); assay: Kinome profiler screen; type: biochemical; details: at 20,000 nM inhibitor; kinase activity remaining
T14 construct: purchased Millipore KinaseProfiler

[15] = molecular target: T15, Hck (Homo sapiens, UniProt P08631); assay: Kinome profiler screen; type: biochemical; details: at 20,000 nM inhibitor; kinase activity remaining
T15 construct: purchased Millipore KinaseProfiler

[16] = molecular target: T16, PI3K-C2γ (Homo sapiens, UniProt O75747); assay: Kinome profiler screen; type: biochemical; details: at 20,000 nM inhibitor; kinase activity remaining
T16 construct: purchased Millipore KinaseProfiler

[17] = molecular target: T17, PKCβI (Homo sapiens, UniProt P05771); assay: Kinome profiler screen; type: biochemical; details: at 20,000 nM inhibitor; kinase activity remaining
T17 construct: purchased Millipore KinaseProfiler

[18] = molecular target: T18, BTK (Homo sapiens, UniProt Q06187); assay: Kinome profiler screen; type: biochemical; details: at 20,000 nM inhibitor; kinase activity remaining
T18 construct: purchased Millipore KinaseProfiler

[19] = molecular target: T19, cKit(V560G) (Homo sapiens, UniProt P10721, V560G); assay: Kinome profiler screen; type: biochemical; details: at 20,000 nM inhibitor; kinase activity remaining
T19 construct: purchased Millipore KinaseProfiler

[20] = molecular target: T20, Abl(Y253F) (Homo sapiens, UniProt P00519, Y253F); assay: Kinome profiler screen; type: biochemical; details: at 20,000 nM inhibitor; kinase activity remaining
T20 construct: purchased Millipore KinaseProfiler

[21] = molecular target: T21, JAK3 (Homo sapiens, UniProt P52333); assay: Kinome profiler screen; type: biochemical; details: at 20,000 nM inhibitor; kinase activity remaining
T21 construct: purchased Millipore KinaseProfiler

[22] = molecular target: T22, EphA4 (Homo sapiens, UniProt P54764); assay: Kinome profiler screen; type: biochemical; details: at 20,000 nM inhibitor; kinase activity remaining
T22 construct: purchased Millipore KinaseProfiler

[23] = molecular target: T23, Abl(m) (Mus musculus, UniProt P00520); assay: Kinome profiler screen; type: biochemical; details: at 20,000 nM inhibitor; kinase activity remaining
T23 construct: purchased Millipore KinaseProfiler

[24] = molecular target: T24, Txk (Homo sapiens, UniProt P42681); assay: Kinome profiler screen; type: biochemical; details: at 20,000 nM inhibitor; kinase activity remaining
T24 construct: purchased Millipore KinaseProfiler

[25] = molecular target: T25, Abl (M351T) (Homo sapiens, UniProt P00519, M351T); assay: Kinome profiler screen; type: biochemical; details: at 20,000 nM inhibitor; kinase activity remaining
T25 construct: purchased Millipore KinaseProfiler

[26] = molecular target: T26, ROCK-I (Homo sapiens, UniProt Q13464); assay: Kinome profiler screen; type: biochemical; details: at 20,000 nM inhibitor; kinase activity remaining
T26 construct: purchased Millipore KinaseProfiler

[27] = molecular target: T27, PI3 Kinase (p110α/p85α)(m) (Mus musculus, UniProt P42337); assay: Kinome profiler screen; type: biochemical; details: at 20,000 nM inhibitor; kinase activity remaining
T27 construct: purchased Millipore KinaseProfiler

[28] = molecular target: T28, PKCθ (Homo sapiens, UniProt Q04759); assay: Kinome profiler screen; type: biochemical; details: at 20,000 nM inhibitor; kinase activity remaining
T28 construct: purchased Millipore KinaseProfiler

[29] = molecular target: T29, EGFR(L858R) (Homo sapiens, UniProt P00533, L858R); assay: Kinome profiler screen; type: biochemical; details: at 20,000 nM inhibitor; kinase activity remaining
T29 construct: purchased Millipore KinaseProfiler

[30] = Aqueous solubility; type: physicochemical; details: for solubility at 24 h: 37 °C, water, thermodynamic from solid
Protocol: Aqueous solubility (logS) and chemical stability were determined as previously described. Briefly, solutions for aqueous solubility (log S) determination were made by gravimetric methods using a Sartorius AG (Germany) BP 211 D analytical balance. Dry borosilicate capillary tubes (Büchi, Switzerland) were weighed and various amounts of compound (ranging from 1.2–1.5 mg) or the hydrochloride hydrate form (ranging from 10–20 mg) were added to the tared tubes, then water added to create solutions ranging in concentrations from […]. Tubes containing the samples were mixed to ensure wetting and incubated at 37°C for 24 h. Aliquots were collected from each tube, centrifuged at 12,000 g-min, and analyzed by HPLC. Concentrations were calculated using area under the peak (260 nm) at the appropriate retention time relative to a standard curve obtained from serial dilutions of each purified compound. […]. The co-solvent was methanol, experimental pH range was 1.7–10.0, temperature was 22±2°C, ionic strength was 0.15 M KCl. Five titrations were used to calculate the pKa using the Yasuda-Shedlovsky technique. […].

[31] = molecular target: T30, BrSK2 (Homo sapiens, UniProt Q8IWQ3); assay: Kinome profiler screen; type: biochemical; details: at 20,000 nM inhibitor; kinase activity remaining
T30 construct: purchased Millipore KinaseProfiler

[32] = molecular target: T31, Ret(V804M) (Homo sapiens, UniProt P07949, V804M); assay: Kinome profiler screen; type: biochemical; details: at 20,000 nM inhibitor; kinase activity remaining
T31 construct: purchased Millipore KinaseProfiler

[33] = tested on: exploratory behavior; assay: Open-field test; type: in vivo, C57BL/6J mice; details: time in and entries into center compartment; control test
[34] = molecular target: T32, Met(M1268T) (Homo sapiens, UniProt P08581, M1250T); assay: Kinome profiler screen; type: biochemical; details: at 20,000 nM inhibitor; kinase activity remaining
T32 construct: purchased Millipore KinaseProfiler

[35] = molecular target: T33, LIMK1 (Homo sapiens, UniProt P53667); assay: Kinome profiler screen; type: biochemical; details: at 20,000 nM inhibitor; kinase activity remaining
T33 construct: purchased Millipore KinaseProfiler

T28 sequence (Q04759 whole entry): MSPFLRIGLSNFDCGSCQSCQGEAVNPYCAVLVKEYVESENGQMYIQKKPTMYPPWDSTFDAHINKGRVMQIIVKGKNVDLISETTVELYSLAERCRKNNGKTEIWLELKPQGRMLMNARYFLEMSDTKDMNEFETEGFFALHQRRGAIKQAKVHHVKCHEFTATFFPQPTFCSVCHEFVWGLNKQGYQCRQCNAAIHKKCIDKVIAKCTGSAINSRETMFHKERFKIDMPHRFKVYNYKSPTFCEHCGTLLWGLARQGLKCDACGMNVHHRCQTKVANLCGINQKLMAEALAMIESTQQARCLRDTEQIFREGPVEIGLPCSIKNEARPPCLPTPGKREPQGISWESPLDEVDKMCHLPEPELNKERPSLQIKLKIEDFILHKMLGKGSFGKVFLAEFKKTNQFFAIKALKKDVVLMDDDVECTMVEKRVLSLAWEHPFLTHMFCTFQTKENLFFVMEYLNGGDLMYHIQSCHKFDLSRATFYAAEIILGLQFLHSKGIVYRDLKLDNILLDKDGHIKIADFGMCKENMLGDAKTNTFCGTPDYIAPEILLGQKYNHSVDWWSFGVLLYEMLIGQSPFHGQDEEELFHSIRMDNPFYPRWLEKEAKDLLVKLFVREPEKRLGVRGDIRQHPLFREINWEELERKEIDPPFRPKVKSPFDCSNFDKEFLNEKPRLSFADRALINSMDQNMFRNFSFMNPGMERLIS
T16 sequence (O75747 whole entry): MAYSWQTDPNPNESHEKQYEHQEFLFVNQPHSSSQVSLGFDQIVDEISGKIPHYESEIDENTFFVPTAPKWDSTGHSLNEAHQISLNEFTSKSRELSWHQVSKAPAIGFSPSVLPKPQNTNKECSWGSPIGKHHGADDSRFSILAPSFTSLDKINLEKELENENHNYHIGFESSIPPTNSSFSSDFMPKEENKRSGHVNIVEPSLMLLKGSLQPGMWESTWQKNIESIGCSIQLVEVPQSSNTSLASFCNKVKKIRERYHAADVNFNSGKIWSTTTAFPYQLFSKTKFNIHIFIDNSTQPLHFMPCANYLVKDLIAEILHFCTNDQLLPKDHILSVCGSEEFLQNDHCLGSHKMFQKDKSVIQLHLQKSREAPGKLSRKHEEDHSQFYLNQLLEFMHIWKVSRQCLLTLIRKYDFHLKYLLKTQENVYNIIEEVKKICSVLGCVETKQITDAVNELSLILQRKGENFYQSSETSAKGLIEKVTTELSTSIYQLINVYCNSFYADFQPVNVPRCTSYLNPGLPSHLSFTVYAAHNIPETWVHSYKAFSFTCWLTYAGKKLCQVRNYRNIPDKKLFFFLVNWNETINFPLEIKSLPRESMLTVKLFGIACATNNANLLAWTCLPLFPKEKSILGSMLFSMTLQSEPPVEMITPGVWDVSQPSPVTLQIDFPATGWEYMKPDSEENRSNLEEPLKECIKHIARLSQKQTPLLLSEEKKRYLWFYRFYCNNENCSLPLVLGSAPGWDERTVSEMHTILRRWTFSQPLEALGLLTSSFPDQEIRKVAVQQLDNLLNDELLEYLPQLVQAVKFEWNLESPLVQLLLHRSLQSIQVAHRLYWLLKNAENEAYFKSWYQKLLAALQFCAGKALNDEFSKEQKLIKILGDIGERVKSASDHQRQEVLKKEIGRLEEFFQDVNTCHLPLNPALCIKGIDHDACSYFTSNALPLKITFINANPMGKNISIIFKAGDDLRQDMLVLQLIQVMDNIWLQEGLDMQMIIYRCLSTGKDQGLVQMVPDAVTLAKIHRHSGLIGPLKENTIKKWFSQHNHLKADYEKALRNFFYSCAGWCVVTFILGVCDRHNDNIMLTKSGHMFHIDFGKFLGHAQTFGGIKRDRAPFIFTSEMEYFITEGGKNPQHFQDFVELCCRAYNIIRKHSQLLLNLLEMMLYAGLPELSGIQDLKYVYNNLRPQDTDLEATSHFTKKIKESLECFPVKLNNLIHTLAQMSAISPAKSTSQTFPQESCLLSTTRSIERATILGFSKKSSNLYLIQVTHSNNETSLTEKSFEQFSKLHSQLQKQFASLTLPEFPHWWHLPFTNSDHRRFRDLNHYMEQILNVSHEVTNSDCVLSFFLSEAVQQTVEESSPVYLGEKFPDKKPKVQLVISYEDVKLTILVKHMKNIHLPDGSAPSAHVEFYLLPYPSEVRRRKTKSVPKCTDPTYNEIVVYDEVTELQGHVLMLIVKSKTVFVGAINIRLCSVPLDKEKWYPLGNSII
T31 sequence (P07949 29-1114 V804M): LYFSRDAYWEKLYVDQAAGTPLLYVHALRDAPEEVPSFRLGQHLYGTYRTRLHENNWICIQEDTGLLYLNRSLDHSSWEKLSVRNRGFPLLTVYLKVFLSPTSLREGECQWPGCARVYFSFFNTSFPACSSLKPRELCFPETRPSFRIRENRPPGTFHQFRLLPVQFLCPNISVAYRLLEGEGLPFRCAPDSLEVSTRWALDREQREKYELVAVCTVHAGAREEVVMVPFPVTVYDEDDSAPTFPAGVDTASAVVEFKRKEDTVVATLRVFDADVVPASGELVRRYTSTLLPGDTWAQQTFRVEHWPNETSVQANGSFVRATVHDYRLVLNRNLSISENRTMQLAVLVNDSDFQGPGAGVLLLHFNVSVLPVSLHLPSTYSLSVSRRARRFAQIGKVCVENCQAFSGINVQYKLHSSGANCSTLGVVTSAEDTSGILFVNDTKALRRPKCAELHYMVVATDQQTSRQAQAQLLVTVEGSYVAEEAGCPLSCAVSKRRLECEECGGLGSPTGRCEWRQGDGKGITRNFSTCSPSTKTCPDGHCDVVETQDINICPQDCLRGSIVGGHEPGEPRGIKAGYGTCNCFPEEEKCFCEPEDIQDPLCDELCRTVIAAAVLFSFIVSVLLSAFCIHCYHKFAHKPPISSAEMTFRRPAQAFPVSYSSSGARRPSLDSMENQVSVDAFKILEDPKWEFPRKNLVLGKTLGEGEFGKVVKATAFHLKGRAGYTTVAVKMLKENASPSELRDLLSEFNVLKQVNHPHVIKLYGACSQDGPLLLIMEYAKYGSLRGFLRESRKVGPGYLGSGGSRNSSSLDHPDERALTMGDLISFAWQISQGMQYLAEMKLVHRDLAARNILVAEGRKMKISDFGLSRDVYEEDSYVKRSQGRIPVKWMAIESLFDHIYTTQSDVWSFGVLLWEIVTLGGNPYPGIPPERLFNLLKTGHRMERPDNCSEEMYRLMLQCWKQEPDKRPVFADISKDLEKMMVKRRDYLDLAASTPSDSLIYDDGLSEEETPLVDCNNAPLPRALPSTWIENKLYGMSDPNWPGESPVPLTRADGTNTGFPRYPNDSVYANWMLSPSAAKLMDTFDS
T21 sequence (P52333 whole entry): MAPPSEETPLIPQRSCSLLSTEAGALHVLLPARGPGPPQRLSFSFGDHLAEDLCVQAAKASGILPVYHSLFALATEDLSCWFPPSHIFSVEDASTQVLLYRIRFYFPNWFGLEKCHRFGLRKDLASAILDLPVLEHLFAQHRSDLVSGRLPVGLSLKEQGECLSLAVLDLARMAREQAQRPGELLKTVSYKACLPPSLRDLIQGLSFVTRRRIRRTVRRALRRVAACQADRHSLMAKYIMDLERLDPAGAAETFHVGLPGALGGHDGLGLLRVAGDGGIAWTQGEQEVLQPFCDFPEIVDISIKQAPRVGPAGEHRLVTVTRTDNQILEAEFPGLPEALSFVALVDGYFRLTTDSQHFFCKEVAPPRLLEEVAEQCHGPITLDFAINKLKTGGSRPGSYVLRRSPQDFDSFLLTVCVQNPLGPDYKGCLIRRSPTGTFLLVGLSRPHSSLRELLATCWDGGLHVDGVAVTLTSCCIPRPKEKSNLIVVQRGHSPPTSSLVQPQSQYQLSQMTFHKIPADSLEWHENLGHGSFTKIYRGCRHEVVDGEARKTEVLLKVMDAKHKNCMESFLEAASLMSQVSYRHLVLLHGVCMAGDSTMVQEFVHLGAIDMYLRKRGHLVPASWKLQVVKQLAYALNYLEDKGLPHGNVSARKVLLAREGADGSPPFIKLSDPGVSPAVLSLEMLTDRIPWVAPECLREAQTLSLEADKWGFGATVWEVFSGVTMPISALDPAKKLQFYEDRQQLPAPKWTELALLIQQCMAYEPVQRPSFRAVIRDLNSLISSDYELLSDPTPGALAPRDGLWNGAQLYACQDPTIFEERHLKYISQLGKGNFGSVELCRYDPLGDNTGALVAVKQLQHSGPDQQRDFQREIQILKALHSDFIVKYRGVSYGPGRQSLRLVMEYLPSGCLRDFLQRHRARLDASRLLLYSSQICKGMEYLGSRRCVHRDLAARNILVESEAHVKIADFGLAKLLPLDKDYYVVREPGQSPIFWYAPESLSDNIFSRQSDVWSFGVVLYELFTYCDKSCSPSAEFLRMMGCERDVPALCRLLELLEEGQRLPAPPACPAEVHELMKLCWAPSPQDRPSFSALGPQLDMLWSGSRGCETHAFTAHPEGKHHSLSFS
T24 sequence (P42681 whole entry): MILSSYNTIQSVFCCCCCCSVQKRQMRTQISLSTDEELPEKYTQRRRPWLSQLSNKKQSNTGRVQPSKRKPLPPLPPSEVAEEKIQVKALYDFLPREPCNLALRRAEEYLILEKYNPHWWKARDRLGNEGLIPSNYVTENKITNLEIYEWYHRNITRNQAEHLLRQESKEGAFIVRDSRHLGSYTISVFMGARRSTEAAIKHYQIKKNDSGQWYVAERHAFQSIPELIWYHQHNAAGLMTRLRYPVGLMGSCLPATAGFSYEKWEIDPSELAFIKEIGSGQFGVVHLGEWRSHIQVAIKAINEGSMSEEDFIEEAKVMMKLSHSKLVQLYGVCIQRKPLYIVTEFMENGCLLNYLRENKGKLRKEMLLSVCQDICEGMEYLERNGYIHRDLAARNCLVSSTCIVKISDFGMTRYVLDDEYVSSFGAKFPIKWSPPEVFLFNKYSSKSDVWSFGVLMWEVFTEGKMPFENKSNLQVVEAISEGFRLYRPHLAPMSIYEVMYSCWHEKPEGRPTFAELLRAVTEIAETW

Structure (SMILES) | activity at 20 µM [1] [%] | activity at 20 µM [2] [%] | activity at 20 µM [3] [%] | activity at 20 µM [4] [%] | activity at 20 µM [5] [%] | activity at 20 µM [6] [%] | activity at 20 µM [7] [%] | activity at 20 µM [8] [%] | activity at 20 µM [9] [%] | activity at 20 µM [10] [%] | activity at 20 µM [12] [%] | activity at 20 µM [13] [%] | activity at 20 µM [14] [%] | activity at 20 µM [15] [%] | activity at 20 µM [16] [%] | activity at 20 µM [17] [%] | activity at 20 µM [18] [%] | activity at 20 µM [19] [%] | activity at 20 µM [20] [%] | activity at 20 µM [21] [%] | also measured
CN(C)c1cc(-c2ccncc2)c(-c2ccc3ccccc3c2)nn1 [MW108, N, N-dimethyl-6-(naphthalen-2-yl)-5-(pyridin-4-yl)pyridazin-3-amine] | 104 | 88 | 99 | 100 | 98 | 104 | 102 | 63 | 103 | 90 | 100 | 96 | 91 | 93 | 50 | 92 | 97 | 95 | 98 | 90 | activity at 20 µM [11]: 98%; activity at 20 µM [22]: 97%; activity at 20 µM [23]: 89%; activity at 20 µM [24]: 98%; activity at 20 µM [25]: 106%; activity at 20 µM [26]: 89%; activity at 20 µM [27]: 101%; activity at 20 µM [28]: 107%; activity at 20 µM [29]: 48%; solubility at 24 h ([30]; Aqueous Solubility (37 °C)): 0.058 mM (≈ 0.0189 mg/mL); solubility at 24 h ([30]; Aqueous Solubility (37 °C), HCl hydrate): 370 mM (≈ 121 mg/mL); Aqueous Solubility (37ºC), HCl hydrate ([30]; 24 h): ~400 mM; activity at 20 µM [31]: 88%; activity at 20 µM [32]: 85%; exploratory behavior, open field [33]: No differences in exploratory behavior; activity at 20 µM [34]: 91%; activity at 20 µM [35]: 106%
CN(C)c1cc(-c2ccncc2)c(-c2cccc3ccccc23)nn1 [MW181, N,N-dimethyl-6-(naphthalen-1-yl)-5-(pyridin-4-yl)pyridazin-3-amine] | 95 | 104 | 125 | 96 | 105 | 106 | 101 | 87 | 98 | 93 | 98 | 110 | 99 | 84 | 97 | 104 | 98 | 71 | 108 | 103 | activity at 20 µM [22]: 110%; activity at 20 µM [23]: 88%; activity at 20 µM [24]: 98%; activity at 20 µM [25]: 101%; activity at 20 µM [26]: 97%; activity at 20 µM [27]: 102%; activity at 20 µM [28]: 98%; activity at 20 µM [29]: 78%; Aqueous Solubility (37ºC), HCl hydrate ([30]; hydrochloride hydrate form, 24 h): ~800 mM; solubility at 24 h ([30]; compound (not the salt), 24 h, read-out: Aqueous Solubility (37ºC)): 0.205 mM; solubility at 24 h ([30]; hydrochloride hydrate form, 24 h, read-out: Aqueous Solubility (37ºC), HCl hydrate): 840 mM (≈ 274 mg/mL); activity at 20 µM [31]: 105%; activity at 20 µM [32]: 102%; exploratory behavior, open field [33]: No differences in exploratory behavior; activity at 20 µM [34]: 95%; activity at 20 µM [35]: 95%

Source: paper PMC3694096, “Development of Novel In Vivo Chemical Probes to Address CNS Protein Kinase Involvement in Synaptic Dysfunction” (PLoS ONE, 2013)
